Measured values reported in patent US20140127185A1, “METHODS AND COMPOSITIONS USING NEUROPROTECTIVE STEROIDS AND THROMBOLYTIC AGENTS” (priority 2012, published 2014).

How the values were obtained:
[1] = system: Male Sprague Dawley (SD) rats subjected to focal ischemia; assay: Focal ischemia with delayed tPA in rats: cerebral hemorrhage, infarct volume, brain swelling; format: in vivo, rat; details: 24 hours post-stroke; tPA 5 mg/kg via femoral vein at 4.5 hours; progesterone i.p. at 2 hours
Procedure: 2,3,5-tripheynltetrazolium (TTC)-stained brain sections are used for quantification of intracerebral hemorrhage with a spectrophotometric hemoglobin assay. Samples typically are collected 19.5 hours after injury. The brain tissue is homogenized in 2 ml 0.05 M tris buffered saline and tween (TBS-T) followed by a 30-minute centrifugation (12,000 rpm) and re-centrifugation for 15-minutes at 10,000 rpm. Then, 200 μl reagent (QuantiChrom™ Hemoglobin Assay Kit; BioAssay Systems) is added to a 50 μl supernatant. Optical density is measured at 405 nm with a spectrophotometer.
Brain edema/swelling are estimated by measuring the hemispheric areas of each 2-mm thick brain slices using Image J software (NIH, Bethesda, […]., USA), typically 24 hours after MCAO. Edema formation is calculated as hemispheric enlargement and expressed as a percentage of the normal areas in the contralateral hemisphere.
Male Sprague Dawley (SD) rats were subjected to focal ischemia, reperfused at 4.5 hours and then treated with tPA (5 mg/kg body weight; via femoral vein) at 4.5 hours or by combined progesterone (given by intraperitoneal injection at 2 hours) plus tPA (given at 4.5 hours). Rats were killed at 24 hours after ischemia, brains were perfused with saline, and coronal sections (2 mm thick) were stained with 2,3,5-triphenyltetrazolium chloride to quantify infarct volumes. […]

claudin-5 = assay: Tight junction protein Western blot in vivo (ischemic cortices): claudin-5; parameters: species or system rat; details: 24 hours after ischemia, compared to stroke without tPA / with tPA
Procedure: Peri-infarct cortical tissue is processed for protein analysis. Tissues are homogenized in T-per (Pierce, Rockford, Ill.) containing protease inhibitor cocktail (P8340, Sigma). Homogenates are centrifuged for 15 minutes at 13,000 g. 40 μg of total protein is separated on 8-12% gel and transferred onto polyvinylidene difluoride (Millipore, Mass., USA; PVDF) membranes at 300 mA for 2 hours. To measure the level of immunoglobulin, the membranes were incubated overnight at 4° C. with anti Rat IgG conjugated to biotin. bEND 3 cells are subjected to hypoxia/reperfusion for 9 hours and then lysed on ice in 100 μl of RIPA buffer. Cell lysated are boiled and then electrophoresed in 12% SDS-PAGE acrylamide gels, transferred onto PVDF membranes, and incubated for 1 hour in TBS-T (tris-buffered saline and 0.1% Tween 20) containing 5% bovine serum albumin (BSA). Membranes are then incubated overnight at 4° C. with primary antibodies against occludin (Invitrogen, Calif., USA; 1:1000), claudin-5 (Invitrogen; 1:1000), and ZO-1 (Invitrogen; 1:1000), washed in TBS-T, and incubated for 1 hour at room temperature with corresponding peroxidase-conjugated secondary antibodies (1:5000; KPL, Gaithersburg, Md.). All blots are stripped and re-incubated with β-actin antibodies (1:5000, Sigma) as a loading control. […] Intensity of the bands is measured by an Image Gauge version. […]

[2] = system: rats with MCAO induced by homologous blood clots; assay: Delayed tPA to cause hemorrhage: embolic MCAO model of hemorrhagic transformation; format: in vivo, rat; details: recombinant tPA 10 mg/kg through the tail vein at 4.5 hours post MCAO-induction
Description: A focal thromboembolic model of cerebral ischemia is induced in rats by middle cerebral artery occlusion (MCAO) via the fibrin-rich clots technique under isoflurane anesthesia. Surgical anesthesia is induced with isoflurane (5% induction, 2% maintenance, […]). Rats are cannulated with a femoral artery catheter for measurement of arterial blood gases, pH (Ciba-Corning 248 pH/blood gas analyzer), blood glucose, hematocrit and mean arterial blood pressure. The body temperature of the animals is maintained at […] with a heating pad controlled by rectal thermistors. A closed cranial window is made in the right parietal skull (2 mm posterior, 6 mm lateral to bregma) for laser doppler probe placement. The rats are mounted on a modified stereotaxic frame equipped with a facemask. The right common carotid artery (CCA), the right internal carotid artery (ICA) and the right external carotid artery (ECA) are exposed by a ventral incision in throat. After surgical preparation of the right CCA and ligation of the pterygo-palatine artery, a PE10 catheter is inserted into the ECA. The tip of the catheter is placed close to the carotid bifurcation. To achieve thromboembolic occlusion of the right middle cerebral artery, 12 medium-sized fibrin rich clots suspended in phosphate with phosphate buffered saline (0.3 ml) are injected by a 1 ml syringe connected to the catheter. […]

Substance: tPA: serum protease acting specifically on serum plasminogen; also known as alteplase, available commercially as Activase
- Hemorrhage volume (hemoglobin in perfused brain) [1]: induced cerebral hemorrhage
- Lower molecular weight 17-kDa claudin-5 fragments (claudin-5): increase
- Hemispheric enlargement and hemorrhage [2]: significant hemispheric enlargement and hemorrhage
